Assay results: US20240317777A1, “NOVEL MACROCYCLIC AMINOPYRAZOLE COMPOUNDS AS CDK2 INHIBITORS” (Accutar Biotechnology Inc., priority 2023, published 2024)
Like-named read-outs stand apart in the source and are kept apart here.

Assays:
CDK6-CYCLIN D3 = CDK6-CYCLIN D3 (Homo sapiens, UniProt Q00534); assay: CDK protein kinase inhibition by ADP-Glo assay, CDK6-CYCLIN D3; format: biochemical; settings: for IC50: ADP-Glo, 1000 μM ATP, read-out: CDK6-CYCLIND3, IC50; for CDK2 Fold Sensitivity, CDK6 / CDK2 Fold selectivity, CDK6: CDK2 versus CDK6; for CDK2 Fold Sensitivity, CDK6: Table 8
CDK6-CYCLIN D3, sequence (Q00534 whole entry): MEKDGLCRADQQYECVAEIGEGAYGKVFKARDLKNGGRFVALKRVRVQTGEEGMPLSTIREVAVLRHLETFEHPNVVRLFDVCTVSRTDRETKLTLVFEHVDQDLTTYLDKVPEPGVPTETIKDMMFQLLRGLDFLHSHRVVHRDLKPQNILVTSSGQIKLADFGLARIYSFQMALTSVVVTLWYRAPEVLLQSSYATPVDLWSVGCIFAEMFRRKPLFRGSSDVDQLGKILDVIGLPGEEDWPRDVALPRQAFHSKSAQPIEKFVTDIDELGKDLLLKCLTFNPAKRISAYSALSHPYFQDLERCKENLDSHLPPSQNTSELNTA
CDK6-CYCLIN D3, sequence (P30281 whole entry partner): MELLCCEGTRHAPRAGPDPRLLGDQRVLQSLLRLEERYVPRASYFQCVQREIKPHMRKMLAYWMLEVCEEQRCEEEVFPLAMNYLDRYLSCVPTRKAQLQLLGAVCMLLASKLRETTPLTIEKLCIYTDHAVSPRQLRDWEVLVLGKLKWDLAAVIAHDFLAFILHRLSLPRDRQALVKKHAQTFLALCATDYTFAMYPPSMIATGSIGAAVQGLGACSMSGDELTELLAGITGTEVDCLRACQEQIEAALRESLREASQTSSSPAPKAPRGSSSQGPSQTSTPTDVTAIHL
Experimental: (§1) CDK Protein Kinase Inhibition by ADP-Glo Assay
(§2) This ADP-Glo assay measures ADP formed from a kinase reaction and indirectly quantifies the phosphorylation of peptide substrates by the CDK/cyclin protein complexes. The typical assays were carried out in Nanosyn by combining kinase/cyclin complexes, substrates, compounds, and cofactors (ATP and Mg2+) in a well of a 384-well microtiter plate (Corning 3824) and incubating at 22° C. (Table 1). At the end of the incubation, the reaction is quenched, and conversion is detected by luminescence using the Promega ADP-Glo™ Kinase Assay kit (catalog #V9102).
(§3) Final assay buffer mixture contains: • 100 mM HEPES, pH 7.5 • 0.1% BSA • 0.01% Triton X-100 • 1 mM DTT • 5 mM MgCl2 • 10 μM Sodium Orthovanadate • 100 μM Beta-Glycerophosphate • 1000 μM Ultra Pure ATP (provided in the Promega ADP-Glo™ Kinase Assay kit) • 1% DMSO (from compound)
(§4) Upon completion, 5 μL of the ADP Glo reagent was added to each well and the plate was further incubated at room temperature for 45 minutes. 10 uL of the Kinase Detection Reagent was subsequently added to each well. After 10 minutes of incubation, the plate was read and analyzed on the BioTek Synergy microplate reader using BioTek Gen5 software.

CDK4-CYCLIN D1 = CDK4-CYCLIN D1 (Homo sapiens, UniProt P11802); assay: CDK protein kinase inhibition by ADP-Glo assay, CDK4-CYCLIN D1; format: biochemical; settings: for IC50: ADP-Glo, 1000 μM ATP, read-out: CDK4-CYCLIND1, IC50; for CDK2 Fold Sensitivity, CDK4 / CDK2 Fold selectivity, CDK4: CDK2 versus CDK4; for CDK2 Fold Sensitivity, CDK4: Table 8
CDK4-CYCLIN D1, sequence (P11802 whole entry): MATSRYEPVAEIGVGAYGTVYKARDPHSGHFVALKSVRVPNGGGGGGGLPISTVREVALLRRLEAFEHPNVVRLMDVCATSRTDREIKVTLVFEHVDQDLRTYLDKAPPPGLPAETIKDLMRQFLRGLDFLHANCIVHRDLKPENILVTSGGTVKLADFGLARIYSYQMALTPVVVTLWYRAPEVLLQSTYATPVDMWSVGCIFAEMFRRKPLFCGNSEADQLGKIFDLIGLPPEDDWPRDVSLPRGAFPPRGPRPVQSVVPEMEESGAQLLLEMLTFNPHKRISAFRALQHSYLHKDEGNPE
CDK4-CYCLIN D1, sequence (P24385 whole entry partner): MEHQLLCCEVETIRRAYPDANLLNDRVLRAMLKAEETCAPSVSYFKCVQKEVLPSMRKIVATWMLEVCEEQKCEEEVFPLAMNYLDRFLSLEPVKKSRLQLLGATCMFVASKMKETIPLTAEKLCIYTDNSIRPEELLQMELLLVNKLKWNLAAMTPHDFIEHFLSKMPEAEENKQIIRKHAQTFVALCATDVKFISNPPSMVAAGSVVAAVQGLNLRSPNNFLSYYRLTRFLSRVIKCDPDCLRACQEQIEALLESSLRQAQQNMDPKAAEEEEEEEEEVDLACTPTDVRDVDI
Experimental: as §1, §2, §3, §4

CCNE1-normal SKOV3 cells = assay: Cell growth inhibition of CCNE1-normal SKOV3 cells (CellTiter-Glo); format: cell-based; settings: Homo sapiens, SK-OV-3, 144 h, 6 days
Procedure, shortened: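 Growth was measured by CellTiter-Glo luminescence after 6 days' compound exposure at 37 °C. Cells were plated one day before dosing at 1000 per well in medium with 10% FBS, and compounds were diluted from DMSO stocks.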

CDK9-CYCLIN T1 = CDK9-CYCLIN T1 (Homo sapiens, UniProt P50750); assay: CDK protein kinase inhibition by ADP-Glo assay, CDK9-CYCLIN T1; format: biochemical; settings: for IC50: ADP-Glo, 1000 μM ATP, read-out: CDK9-CYCLINT1, IC50; for CDK2 Fold Sensitivity, CDK9 / CDK2 Fold selectivity, CDK9: CDK2 versus CDK9; for CDK2 Fold Sensitivity, CDK9: Table 8
CDK9-CYCLIN T1, sequence (P50750 whole entry): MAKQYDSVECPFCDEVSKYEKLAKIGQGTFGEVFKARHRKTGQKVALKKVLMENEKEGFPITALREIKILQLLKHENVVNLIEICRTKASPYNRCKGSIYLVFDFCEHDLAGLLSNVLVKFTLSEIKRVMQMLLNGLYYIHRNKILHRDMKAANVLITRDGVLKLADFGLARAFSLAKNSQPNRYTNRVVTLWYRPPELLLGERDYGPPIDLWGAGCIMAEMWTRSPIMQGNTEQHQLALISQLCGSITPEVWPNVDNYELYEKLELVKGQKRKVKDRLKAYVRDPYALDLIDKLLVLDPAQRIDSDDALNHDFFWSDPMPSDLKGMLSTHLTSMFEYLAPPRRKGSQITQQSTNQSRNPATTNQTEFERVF
CDK9-CYCLIN T1, sequence (O60563 whole entry partner): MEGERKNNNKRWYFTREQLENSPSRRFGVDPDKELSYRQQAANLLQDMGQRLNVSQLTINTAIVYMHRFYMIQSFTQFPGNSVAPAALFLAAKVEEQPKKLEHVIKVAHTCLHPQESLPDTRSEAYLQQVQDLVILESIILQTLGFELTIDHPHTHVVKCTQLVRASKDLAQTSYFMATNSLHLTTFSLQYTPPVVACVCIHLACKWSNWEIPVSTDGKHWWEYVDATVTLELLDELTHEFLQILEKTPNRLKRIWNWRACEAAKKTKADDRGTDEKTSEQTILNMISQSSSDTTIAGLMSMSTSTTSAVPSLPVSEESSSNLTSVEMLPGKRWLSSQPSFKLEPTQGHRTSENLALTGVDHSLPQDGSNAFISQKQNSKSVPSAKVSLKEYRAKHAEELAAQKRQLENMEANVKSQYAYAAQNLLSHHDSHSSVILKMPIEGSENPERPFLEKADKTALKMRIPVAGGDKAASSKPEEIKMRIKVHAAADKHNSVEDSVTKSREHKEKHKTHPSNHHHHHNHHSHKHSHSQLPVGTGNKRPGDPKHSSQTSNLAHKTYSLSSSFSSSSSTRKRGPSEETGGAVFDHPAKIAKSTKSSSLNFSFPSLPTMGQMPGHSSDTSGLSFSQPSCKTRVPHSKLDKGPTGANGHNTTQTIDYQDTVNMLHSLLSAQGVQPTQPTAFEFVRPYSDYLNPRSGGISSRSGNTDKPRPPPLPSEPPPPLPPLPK
Experimental: as §1, §2, §3, §4

[1] = test system: Phospho-Rb (Ser807/811) in OVCAR3 cells; assay: Phospho-Rb expression inhibition in OVCAR3 cells quantified by In Cell Western; format: cell-based; settings: Homo sapiens, OVCAR-3, 24 hours, read-out: OVCAR-3 pRb IC50
Procedure, shortened: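 In-cell western: after 24 h compound exposure at 37° C, fixed OVCAR3 cells co-stained for pRb Ser807/811 (800 nm channel) and total Rb (680 nm channel), imaged by LI-COR Odyssey.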

[2] = test system: CCNE1-amplified OVCAR3 cells; assay: Cell growth inhibition of CCNE1-amplified OVCAR3 cells (CellTiter-Glo); format: cell-based; settings: Homo sapiens, OVCAR-3, 144 h, 6 days
Procedure, shortened: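 Growth read-out was CellTiter-Glo luminescence, taken after 10 min at room temperature at the end of a 6-day compound exposure at 37 °C. Compounds were diluted from DMSO stocks across various concentrations.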

CDK2-CYCLIN E1 = CDK2-CYCLIN E1 (Homo sapiens, UniProt P24941); assay: CDK protein kinase inhibition by ADP-Glo assay, CDK2-CYCLIN E1; format: biochemical; settings: ADP-Glo, 1000 μM ATP, read-out: CDK2-CYCLINE, IC50
Experimental: as §1, §2, §3, §4

CDK1-CYCLIN B = CDK1-CYCLIN B (Homo sapiens, UniProt P06493); assay: CDK protein kinase inhibition by ADP-Glo assay, CDK1-CYCLIN B; format: biochemical; settings: for IC50: ADP-Glo, 1000 μM ATP, read-out: CDK1-CYCLINB, IC50; for CDK2 fold selectivity over CDK1 / CDK2 Fold selectivity, CDK1: CDK2 versus CDK1; for CDK2 fold selectivity over CDK1: Table 8
CDK1-CYCLIN B, sequence (P06493 whole entry): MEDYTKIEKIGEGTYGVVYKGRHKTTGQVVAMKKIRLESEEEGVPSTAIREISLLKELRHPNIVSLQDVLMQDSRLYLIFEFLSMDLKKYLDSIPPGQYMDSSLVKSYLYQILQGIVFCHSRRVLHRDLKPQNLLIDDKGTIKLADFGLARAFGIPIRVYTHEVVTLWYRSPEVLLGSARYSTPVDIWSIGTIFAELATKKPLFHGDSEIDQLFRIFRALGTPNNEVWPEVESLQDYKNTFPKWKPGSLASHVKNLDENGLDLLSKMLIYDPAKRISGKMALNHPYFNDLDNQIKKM
CDK1-CYCLIN B, sequence (P14635 whole entry partner): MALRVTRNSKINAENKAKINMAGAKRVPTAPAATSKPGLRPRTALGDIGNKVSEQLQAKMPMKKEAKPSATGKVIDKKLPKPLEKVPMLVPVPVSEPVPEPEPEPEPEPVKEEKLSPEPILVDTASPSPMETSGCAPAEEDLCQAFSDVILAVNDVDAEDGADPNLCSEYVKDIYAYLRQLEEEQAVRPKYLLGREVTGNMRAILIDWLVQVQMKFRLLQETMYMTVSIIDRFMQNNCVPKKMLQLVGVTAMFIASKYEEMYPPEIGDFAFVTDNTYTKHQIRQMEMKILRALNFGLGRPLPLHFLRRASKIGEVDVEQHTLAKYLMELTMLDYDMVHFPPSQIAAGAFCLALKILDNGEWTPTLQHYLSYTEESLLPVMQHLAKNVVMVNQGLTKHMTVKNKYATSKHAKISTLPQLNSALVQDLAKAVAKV
Experimental: as §1, §2, §3, §4

O=C1NCCCCCc2cc(cc(C(F)F)n2)Nc2cc([nH]n2)[C@H]2CC[C@H](C2)O1 [Compound 17, (1^1S,1^3R,Z)-4^6-(difluoromethyl)-2^1H-12-oxa-3,10-diaza-4(4,2)-pyridina-2(3,5)-pyrazola-1(1,3)-cyclopentanacyclododecaphan-11-one]
IC50 (CDK6-CYCLIN D3; Table 7): 50 to 100 nM
CDK2 Fold Sensitivity, CDK6 (CDK6-CYCLIN D3): B (B, >100 and ≤500)
IC50 (CDK4-CYCLIN D1; Table 7): 100 to 500 nM
CDK2 Fold Sensitivity, CDK4 (CDK4-CYCLIN D1): B (B, >100 and ≤500)
IC50 (CCNE1-normal SKOV3 cells): 250 to 1250 nM
IC50 (CDK9-CYCLIN T1; Table 7): 50 to 100 nM
CDK2 Fold Sensitivity, CDK9 (CDK9-CYCLIN T1): C (C, >50 and ≤100)
IC50 [1]: 2 to 10 nM
IC50 [2]: 2 to 10 nM
IC50 (CDK2-CYCLIN E1; Table 7): ≤ 10 nM
IC50 (CDK1-CYCLIN B; Table 7): ≤ 10 nM
CDK2 fold selectivity over CDK1 (CDK1-CYCLIN B): E (E, <20)

O=C1NC23CC(COc4cc(cc(C(F)F)n4)Nc4cc([nH]n4)[C@H]4CC[C@H](C4)O1)(C2)C3 [Compound 19, (1^1S,1^3R,Z)-46-(difluoromethyl)-2^1H-5,10-dioxa-3,8-diaza-4(4,2)-pyridina-2(3,5)-pyrazola-7(1,3)-bicyclo[1.1.1]pentana-1(1,3)-cyclopentanacyclodecaphan-9-one]
IC50 (CDK6-CYCLIN D3; Table 11): > 500 nM
CDK2 Fold selectivity, CDK6 (CDK6-CYCLIN D3; Table 12): B (B, >100 and ≤500)
IC50 (CDK4-CYCLIN D1; Table 11): > 500 nM
CDK2 Fold selectivity, CDK4 (CDK4-CYCLIN D1; Table 12): A (A, ≥500)
IC50 (CCNE1-normal SKOV3 cells): > 1250 nM
IC50 (CDK9-CYCLIN T1; Table 11): > 500 nM
CDK2 Fold selectivity, CDK9 (CDK9-CYCLIN T1; Table 12): A (A, ≥500)
IC50 [1]: 2 to 10 nM
IC50 [2]: 10 to 50 nM
IC50 (CDK2-CYCLIN E1; Table 11): ≤ 10 nM
IC50 (CDK1-CYCLIN B; Table 11): 50 to 100 nM
CDK2 Fold selectivity, CDK1 (CDK1-CYCLIN B; Table 12): D (D, >20 and ≤50)

O=C1NCCCCC(F)(F)c2cc(ccn2)Nc2cc([nH]n2)[C@H]2CC[C@H](C2)O1 [Compound 64, (1^1S,1^3R,Z)-5,5-difluoro-2^1H-12-oxa-3,10-diaza-4(4,2)-pyridina-2(3,5)-pyrazola-1(1,3)-cyclopentanacyclododecaphan-11-one]
IC50 (CDK6-CYCLIN D3; Table 19): 10 to 50 nM
CDK2 Fold selectivity, CDK6 (CDK6-CYCLIN D3; Table 20): D (D, >20 and ≤50)
IC50 (CDK4-CYCLIN D1; Table 19): 10 to 50 nM
CDK2 Fold selectivity, CDK4 (CDK4-CYCLIN D1; Table 20): D (D, >20 and ≤50)
IC50 (CCNE1-normal SKOV3 cells): 50 to 250 nM
IC50 (CDK9-CYCLIN T1; Table 19): 10 to 50 nM
CDK2 Fold selectivity, CDK9 (CDK9-CYCLIN T1; Table 20): E (E, <20)
IC50 [1]: ≤ 2 nM
IC50 [2]: 2 to 10 nM
IC50 (CDK2-CYCLIN E1; Table 19): ≤ 10 nM
IC50 (CDK1-CYCLIN B; Table 19): ≤ 10 nM
CDK2 Fold selectivity, CDK1 (CDK1-CYCLIN B; Table 20): E (E, <20)

O=C1NC23CC(CCCc4cc(ccn4)Nc4cc(n[nH]4)[C@H]4CC[C@H](C4)O1)(C2)C3 [Compound 96, (1^1S,1^3R,Z)-2^1H-11-oxa-3,9-diaza-4(4,2)-pyridina-2(3,5)-pyrazola-8(1,3)-bicyclo[1.1.1]pentana-1(1,3)-cyclopentanacycloundecaphan-10-one]
IC50 (CDK6-CYCLIN D3; Table 13): 10 to 50 nM
CDK2 Fold selectivity, CDK6 (CDK6-CYCLIN D3; Table 14): E (E, <20)
IC50 (CDK4-CYCLIN D1; Table 13): 50 to 100 nM
CDK2 Fold selectivity, CDK4 (CDK4-CYCLIN D1; Table 14): D (D, >20 and ≤50)
IC50 (CCNE1-normal SKOV3 cells): 50 to 250 nM
IC50 (CDK9-CYCLIN T1; Table 13): ≤ 10 nM
CDK2 Fold selectivity, CDK9 (CDK9-CYCLIN T1; Table 14): E (E, <20)
IC50 [1]: ≤ 2 nM
IC50 [2]: 2 to 10 nM
IC50 (CDK2-CYCLIN E1; Table 13): ≤ 10 nM
IC50 (CDK1-CYCLIN B; Table 13): ≤ 10 nM
CDK2 Fold selectivity, CDK1 (CDK1-CYCLIN B; Table 14): E (E, <20)

C[C@@H]1CC23CC(C2)(C3)NC(=O)O[C@@H]2CC[C@@H](C2)c2cc([nH]n2)Nc2ccnc(c2)O1 [Compound 100, (1^1S,1^3R,6R,Z)-6-methyl-2^1H-5,11-dioxa-3,9-diaza-4(4,2)-pyridina-2(3,5)-pyrazola-8(1,3)-bicyclo[1.1.1]pentana-1(1,3)-cyclopentanacycloundecaphan-10-one]
IC50 (CDK6-CYCLIN D3; Table 17): 100 to 500 nM
CDK2 Fold selectivity, CDK6 (CDK6-CYCLIN D3; Table 18): C (C, >50 and ≤100)
IC50 (CDK4-CYCLIN D1; Table 17): 100 to 500 nM
CDK2 Fold selectivity, CDK4 (CDK4-CYCLIN D1; Table 18): C (C, >50 and ≤100)
IC50 (CCNE1-normal SKOV3 cells): 50 to 250 nM
IC50 (CDK9-CYCLIN T1; Table 17): 10 to 50 nM
CDK2 Fold selectivity, CDK9 (CDK9-CYCLIN T1; Table 18): D (D, >20 and ≤50)
IC50 [1]: 2 to 10 nM
IC50 [2]: 10 to 50 nM
IC50 (CDK2-CYCLIN E1; Table 17): ≤ 10 nM
IC50 (CDK1-CYCLIN B; Table 17): 10 to 50 nM
CDK2 Fold selectivity, CDK1 (CDK1-CYCLIN B; Table 18): E (E, <20)

C[C@H]1CC23CC(C2)(C3)NC(=O)O[C@@H]2CC[C@@H](C2)c2cc([nH]n2)Nc2ccnc(c2)O1 [Compound 102, (1^1S,1^3R,6S,Z)-6-methyl-2^1H-5,11-dioxa-3,9-diaza-4(4,2)-pyridina-2(3,5)-pyrazola-8(1,3)-bicyclo[1.1.1]pentana-1(1,3)-cyclopentanacycloundecaphan-10-one]
IC50 (CDK6-CYCLIN D3; Table 17): 100 to 500 nM
CDK2 Fold selectivity, CDK6 (CDK6-CYCLIN D3; Table 18): C (C, >50 and ≤100)
IC50 (CDK4-CYCLIN D1; Table 17): 100 to 500 nM
CDK2 Fold selectivity, CDK4 (CDK4-CYCLIN D1; Table 18): C (C, >50 and ≤100)
IC50 (CCNE1-normal SKOV3 cells): 50 to 250 nM
IC50 (CDK9-CYCLIN T1; Table 17): 10 to 50 nM
CDK2 Fold selectivity, CDK9 (CDK9-CYCLIN T1; Table 18): E (E, <20)
IC50 [1]: ≤ 2 nM
IC50 [2]: 2 to 10 nM
IC50 (CDK2-CYCLIN E1; Table 17): ≤ 10 nM
IC50 (CDK1-CYCLIN B; Table 17): ≤ 10 nM
CDK2 Fold selectivity, CDK1 (CDK1-CYCLIN B; Table 18): E (E, <20)

O=C1NCCCCOc2cccc(c2)Nc2cc([nH]n2)[C@H]2CC[C@H](C2)O1 [Compound 105, (1^1S,1^3R,Z)-2^1H-5,12-dioxa-3,10-diaza-2(5,3)-pyrazola-4(1,3)-benzena-1(1,3)-cyclopentanacyclododecaphan-11-one]
IC50 (CDK6-CYCLIN D3; Table 7): 100 to 500 nM
CDK2 Fold Sensitivity, CDK6 (CDK6-CYCLIN D3): C (C, >50 and ≤100)
IC50 (CDK4-CYCLIN D1; Table 7): 100 to 500 nM
CDK2 Fold Sensitivity, CDK4 (CDK4-CYCLIN D1): D (D, >20 and ≤50)
IC50 (CCNE1-normal SKOV3 cells): > 1250 nM
IC50 (CDK9-CYCLIN T1; Table 7): > 500 nM
CDK2 Fold Sensitivity, CDK9 (CDK9-CYCLIN T1): B (B, >100 and ≤500)
IC50 [1]: 10 to 50 nM
IC50 [2]: 50 to 250 nM
IC50 (CDK2-CYCLIN E1; Table 7): ≤ 10 nM
IC50 (CDK1-CYCLIN B; Table 7): 100 to 500 nM
CDK2 fold selectivity over CDK1 (CDK1-CYCLIN B): C (C, >50 and ≤100)
